From ChEMBL document CHEMBL4257571, “Discovery of 5-(2-chloro-4'-(1H-imidazol-1-yl)-[1,1'-biphenyl]-4-yl)-1H-tetrazole as potent and orally efficacious S-nitrosoglutathione reductase (GSNOR) inhibitors for the potential treatment of COPD” (Bioorg Med Chem Lett, 2018)
Converted amounts (≈) assume the structure as drawn.

Assays:
Rattus norvegicus = species: Rattus norvegicus; assay: Displacement of [35S]dATPalphaS to rat P2Y receptor at 10 uM after 60 mins by scintillation counting analysis relative to control
Mus musculus [1] = assay: (§1) Anti-inflammatory activity in C57BL/6 mouse model of cigarette smoke induced chronic obstructive pulmonary disease assessed as neutrophil count in bronchoalveolar lavage at 30 mg/kg, po administered once daily for 7 days 1 hr prior to first smoke exposure and measured on day 8 after last smoke exposure post single drug treatment by Leishman's staining based assay; type: functional
[2] = Clearance in C57/BL6 mouse at 3 mg/kg, iv; type: ADME, organism-based; details: in vivo
[3] = Apparent permeability in human Calu3 cells; type: ADME, cell-based, Calu-3
[4] = target: T1, Carbonyl reductase [NADPH] 1 (Homo sapiens) (UniProt P16152); assay: Inhibition of CBR1 (unknown origin) assessed as reduction in NADP+ production at 10 uM by spectrophotometric analysis relative to control
T1 sequence (whole entry): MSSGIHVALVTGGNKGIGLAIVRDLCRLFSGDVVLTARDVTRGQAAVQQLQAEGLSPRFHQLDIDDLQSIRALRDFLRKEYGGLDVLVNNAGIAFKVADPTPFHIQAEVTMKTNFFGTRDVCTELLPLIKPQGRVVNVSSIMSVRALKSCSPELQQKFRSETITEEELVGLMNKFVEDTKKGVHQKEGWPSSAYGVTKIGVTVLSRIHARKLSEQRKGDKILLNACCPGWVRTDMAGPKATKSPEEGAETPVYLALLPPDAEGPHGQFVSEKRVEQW

[5] = target: Leukotriene B4 receptor 1 (Homo sapiens) (UniProt Q15722); assay: Displacement of [3H]LTB4 to recombinant human LTB4 receptor at 10 uM after 60 mins by scintillation counting analysis relative to control
Leukotriene B4 receptor 1 (Homo sapiens), sequence (Q15722 whole entry): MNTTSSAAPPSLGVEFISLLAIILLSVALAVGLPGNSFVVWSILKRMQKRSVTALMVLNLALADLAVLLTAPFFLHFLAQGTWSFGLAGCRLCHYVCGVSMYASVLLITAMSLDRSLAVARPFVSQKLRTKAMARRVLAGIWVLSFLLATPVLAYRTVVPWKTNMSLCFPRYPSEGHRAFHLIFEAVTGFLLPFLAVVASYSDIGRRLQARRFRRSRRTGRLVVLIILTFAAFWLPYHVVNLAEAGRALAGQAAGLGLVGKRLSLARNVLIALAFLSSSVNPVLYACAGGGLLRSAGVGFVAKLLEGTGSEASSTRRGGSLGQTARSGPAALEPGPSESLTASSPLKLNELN

[6] = Aqueous solubility of compound in acetate buffer at pH 4.5; type: physicochemical
[7] = Effective permeability of the compound by PAMPA assay; type: ADME; details: read-out: Peff
Mus musculus [8] = assay: as §1, with “total leukocyte” for “neutrophil”, “10” for “30”, “hemocytometry” for “Leishman's staining based assay”; type: functional
[9] = Aqueous solubility of compound in 0.1 N HCl; type: physicochemical
CYP2C9 = CYP2C9 (Homo sapiens, UniProt P11712); assay: Inhibition of CYP2C9 in human liver microsomes at 10 uM after 20 mins in presence of NADPH by LC/MS/MS analysis relative to control; type: ADME
CYP2C9, sequence (P11712 whole entry): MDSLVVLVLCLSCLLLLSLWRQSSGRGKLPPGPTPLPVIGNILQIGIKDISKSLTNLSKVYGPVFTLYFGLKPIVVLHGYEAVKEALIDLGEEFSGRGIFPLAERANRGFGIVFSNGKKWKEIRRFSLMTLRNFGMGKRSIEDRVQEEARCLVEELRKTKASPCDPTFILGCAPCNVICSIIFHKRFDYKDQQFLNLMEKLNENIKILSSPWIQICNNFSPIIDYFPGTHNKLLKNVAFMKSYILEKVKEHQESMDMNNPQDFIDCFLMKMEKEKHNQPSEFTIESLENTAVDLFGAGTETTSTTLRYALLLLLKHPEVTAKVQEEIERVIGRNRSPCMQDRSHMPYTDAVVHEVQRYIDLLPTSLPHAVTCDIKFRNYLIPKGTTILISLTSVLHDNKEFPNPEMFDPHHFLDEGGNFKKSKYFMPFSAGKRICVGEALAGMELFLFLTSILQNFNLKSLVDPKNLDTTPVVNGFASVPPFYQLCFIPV

Mus musculus [10] = assay: as §1, with “macrophages” for “neutrophil”, “3” for “30”; type: functional
[11] = Half life in C57/BL6 mouse at 30 mg/kg, po; type: ADME, organism-based; details: in vivo
Homo sapiens [12] = species: Homo sapiens; assay: Inhibition of I2 receptor (unknown origin) at 10 uM relative to control
[13] = target: Alcohol dehydrogenase class-3 (Rattus norvegicus, UniProt P12711); assay: Inhibition of rat GSNOR assessed as reduction in NADH consumption after 3 mins by spectrophotometric analysis
Alcohol dehydrogenase class-3 (Rattus norvegicus, UniProt P12711), sequence (P12711 whole entry): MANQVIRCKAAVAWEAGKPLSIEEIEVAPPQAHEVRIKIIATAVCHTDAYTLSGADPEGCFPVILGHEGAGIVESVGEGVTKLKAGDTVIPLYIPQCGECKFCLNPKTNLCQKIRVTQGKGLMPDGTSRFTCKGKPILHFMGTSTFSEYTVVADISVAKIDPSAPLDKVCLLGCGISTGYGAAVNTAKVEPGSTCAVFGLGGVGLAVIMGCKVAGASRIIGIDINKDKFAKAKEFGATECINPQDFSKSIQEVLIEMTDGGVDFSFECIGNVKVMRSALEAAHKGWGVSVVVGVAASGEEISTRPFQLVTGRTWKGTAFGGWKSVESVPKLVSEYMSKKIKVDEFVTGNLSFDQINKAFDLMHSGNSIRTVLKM

[14] = target: Alcohol dehydrogenase class-3 (Mus musculus, UniProt P28474); assay: Inhibition of mouse GSNOR assessed as reduction in NADH consumption after 3 mins by spectrophotometric analysis
Alcohol dehydrogenase class-3 (Mus musculus, UniProt P28474), sequence (P28474 whole entry): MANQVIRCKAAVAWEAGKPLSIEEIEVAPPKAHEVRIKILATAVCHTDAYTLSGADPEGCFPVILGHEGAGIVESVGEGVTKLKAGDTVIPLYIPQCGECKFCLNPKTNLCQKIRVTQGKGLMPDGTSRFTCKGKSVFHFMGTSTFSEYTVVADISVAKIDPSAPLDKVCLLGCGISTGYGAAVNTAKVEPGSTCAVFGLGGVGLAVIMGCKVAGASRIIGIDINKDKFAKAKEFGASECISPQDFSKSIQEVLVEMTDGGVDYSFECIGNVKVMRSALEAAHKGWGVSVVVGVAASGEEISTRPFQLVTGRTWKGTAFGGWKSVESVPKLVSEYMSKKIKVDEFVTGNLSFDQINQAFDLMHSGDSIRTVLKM

[15] = Aqueous solubility of compound in DMSO; type: physicochemical
Homo sapiens [16] = species: Homo sapiens; assay: Inhibition of BZD receptor (unknown origin) at 10 uM relative to control
Bos taurus = species: Bos taurus; assay: Inhibition of bovine PDE6 at 10 uM using [3H]cGMP as substrate after 60 mins by scintillation counting analysis relative to control

Clc1cc(-c2nnn[nH]2)ccc1-c1ccc(-n2ccnc2)cc1
inhibition (Rattus norvegicus): 59%
Activity (Mus musculus [1]): 37%
clearance [2]: 1.4 mL/min/kg
Papp [3]: 8.23 ×10⁻⁶ cm/s
inhibition [4]: 24%
inhibition [5]: 64%
solubility [6]: 1.1 µg/mL (≈ 3.41 µM)
Papp [7]: 0.12 ×10⁻⁶ cm/s
Activity (Mus musculus [8]): 41%
solubility [9]: 20 µg/mL (≈ 62 µM)
inhibition at 20 min, 10 µM (CYP2C9): 86%
Activity (Mus musculus [10]): 45%
half-life [11]: 360 min
inhibition (Homo sapiens [12]): 88%
IC50 [13]: 9.1 nM
IC50 [14]: 7.1 nM
solubility [15]: 20 mg/mL (≈ 62000 µM)
inhibition (Homo sapiens [16]): 50%
inhibition (Bos taurus): 60%
